Tests used:
dephosphorylated PDK1 = dephosphorylated PDK1 (Homo sapiens (Human), UniProt O15530); assay: PDK1 kinase assay (coupled PDK1/AKT/FAM-crosstide, IMAP); assay type: biochemical; details: 25 nM un-phosphorylated PDK1, 24 μM ATP; read-out: Inhibition of dephospo-PDK1 in vitro IC50
Protocol: A PDK1 kinase assay was performed as follows. PDK1 (amino acids 51-360) and AKT2 (amino acids 140-467 fused to PIFtide, amino acids […]) were expressed as N-terminally tagged GST fusion proteins in insect cells and purified to greater than 90% homogeneity. PDK1 protein was divided into two fractions, one of which was subsequently dephosphorylated. To generate dephosphorylated PDK1, the PDK1 was reacted with GST-tagged lambda-phosphatase in vitro. GST was subsequently cleaved proteolytically for both phosphorylated and dephosphorylated PDK1. Protein preparations were run on glutathione Sepharose columns to remove GST and GST-tagged lambda-phosphatase, if present. Phosphorylated PDK1 and dephosphorylated PDK1 were verified by mass-spectrometry. Enzyme activity was determined in a coupled PDK1/AKT/FAM-crosstide assay using either phosphorylated or unphosphorylated PDK1 and phosphorylation of FAM-crosstide was determined by standard IMAP protocol (Molecular Devices). For inhibition studies, compounds were titrated 3-fold in DMSO and diluted 40-fold into assay buffer (10 mM Tris HCl pH7.2; 10 mM MgCl2; 0.01% Triton X-100; 1 mM DTT) containing PDK1, AKT2, and FAM-crosstide. (final concentrations: 25 nM un-phosphorylated PDK1 or 0.5 nM phosphorylated PDK1, 30 nM unphosphorylated AKT2, and 100 nM crosstide substrate). The kinase reaction was initiated by adding ATP to a final concentration of 24 μM for both forms of PDK1 and incubated at 25° C. for 30 min. To detect assay product, the kinase reaction was combined with Progressive Binding Solution (1:600 Progressive Binding Reagent, 50% Buffer A, 50% Buffer B, Molecular Devices) in a 1:3 ratio. The mixture was incubated for 2 hours at 25° C. and the plate was scanned on an Analyst AD with excitation at 485 nm and emission at 530 nm. The fluorescence polarization value “P” is defined by the equation below. The value “mP” is generated by multiplying the P value for each reaction well by a factor of 1000. The value “ΔmP” for each well is the mP value for that well minus the mP value for the average negative control. P=(Fpar−Fperp)/(Fpar+Fperp) Eq.:
Where “par” is fluorescence intensity parallel to the excitation plane; and “perp” is fluorescence intensity perpendicular to the excitation plane. ΔmP values were plotted as a function of compound concentration and the data were analyzed with a 4-parameter fit using GraphPad Prism software.

phosphorylated PDK1 = phosphorylated PDK1 (Homo sapiens (Human), UniProt O15530); assay: as above; assay type: biochemical; details: 0.5 nM phosphorylated PDK1, 24 μM ATP; read-out: Inhibition of phospo-PDK1 in vitro IC50
phosphorylated PDK1, sequence (O15530 51-360): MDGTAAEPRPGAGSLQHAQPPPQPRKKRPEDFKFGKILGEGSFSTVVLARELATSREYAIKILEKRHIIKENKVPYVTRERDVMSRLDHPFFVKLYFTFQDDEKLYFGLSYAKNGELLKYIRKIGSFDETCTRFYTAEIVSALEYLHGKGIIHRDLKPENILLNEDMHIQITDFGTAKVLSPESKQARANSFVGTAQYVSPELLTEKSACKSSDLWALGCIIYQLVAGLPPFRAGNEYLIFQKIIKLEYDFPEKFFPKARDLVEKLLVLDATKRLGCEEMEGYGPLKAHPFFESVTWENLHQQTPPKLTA

dephosphorylated PDK1, sequence (O15530 51-360): as above

## CCc1ccnc(NCCC#CCCNC(=O)c2cc(Cl)cn(Cc3cccc(Cl)c3)c2=O)n1 [Cpd 257]
Dephosphorylated PDK1
  IC50: < 500 nM
Phosphorylated PDK1
  IC50: < 500 nM

## COc1ccnc(NCCCCCCNC(=O)c2cccn(Cc3cccc(F)c3)c2=O)n1 [Cpd 261]
Dephosphorylated PDK1
  IC50: < 500 nM
Phosphorylated PDK1
  IC50: 500 to 10000 nM

## COc1ccnc(NCCCCCNC(=O)c2cccn(Cc3ccc(F)c(F)c3)c2=O)n1 [Cpd 107]
Dephosphorylated PDK1
  IC50: < 500 nM
Phosphorylated PDK1
  IC50: 500 to 10000 nM

## O=C(N[C@H](COc1ccc2[nH]c(=O)[nH]c2c1)C1CCOC1)c1cccn(Cc2cc(F)c(F)c(F)c2)c1=O (some centres unmarked) [Cpd 185]
Dephosphorylated PDK1
  IC50: < 500 nM
Phosphorylated PDK1
  IC50: < 500 nM

## O=C(NCc1cccc(-c2cc(=O)[nH][nH]2)c1)c1cccn(Cc2ccc(F)c(F)c2)c1=O [Cpd 217]
Dephosphorylated PDK1
  IC50: 500 to 10000 nM
Phosphorylated PDK1
  IC50: > 10000 nM

## Cn1c(=O)[nH]c2cc(OCCNC(=O)c3cccn(Cc4ccc(F)c(F)c4)c3=O)ccc21 [Cpd 119, N-(3-(4-chloro-H-pyrrolo[2,3-b]pyridin-3-yl)benzyl)-1-(3,4-difluorobenzyl)-2-oxo-1,2-dihydropyridine-3-carboxamide]
Dephosphorylated PDK1
  IC50: < 500 nM
Phosphorylated PDK1
  IC50: < 500 nM

## O=C(NCc1cccc(-c2ccc3nsnc3c2)c1)c1cccn(Cc2ccc(F)c(F)c2)c1=O [Cpd 218]
Dephosphorylated PDK1
  IC50: 500 to 10000 nM
Phosphorylated PDK1
  IC50: > 10000 nM

## Cc1nc(CNC(=O)c2cccn(Cc3ccc(F)c(F)c3)c2=O)sc1-c1c[nH]c2ncccc12 [Cpd 115]
Dephosphorylated PDK1
  IC50: < 500 nM
Phosphorylated PDK1
  IC50: 500 to 10000 nM

## COc1ccnc(NCC/C=C/CCNC(=O)c2cccn(Cc3cccc(Cl)c3)c2=O)n1 [Cpd 103, 1-(3,4-Difluoro-benzyl)-2-oxo-1,2-dihydro-pyridine-3-carboxylic acid 3-(4-amino-1H-pyrazolo[3,4-d]pyrimidin-3-yl)-benzylamides]
Dephosphorylated PDK1
  IC50: < 500 nM
Phosphorylated PDK1
  IC50: 500 to 10000 nM

## O=C(NCc1nc(-c2c[nH]c3ncccc23)cs1)c1cc(Cl)cn(Cc2ccc(Cl)cc2)c1=O [Cpd 273]
Dephosphorylated PDK1
  IC50: < 500 nM
Phosphorylated PDK1
  IC50: < 500 nM

## O=C(NCCSc1ccc2[nH]c(=O)[nH]c2c1)c1cccn(Cc2ccc(F)c(F)c2)c1=O [Cpd 118]
Dephosphorylated PDK1
  IC50: < 500 nM
Phosphorylated PDK1
  IC50: 500 to 10000 nM

## O=C(NC1(c2nnc(-c3c[nH]c4ncccc34)o2)CC1)c1cccn(Cc2ccc(F)c(F)c2)c1=O [Cpd 281]
Dephosphorylated PDK1
  IC50: < 500 nM
Phosphorylated PDK1
  IC50: < 500 nM

## COc1ccnc(NCCC#CCCNC(=O)c2cc(Cl)cn(Cc3ccc(Cl)cc3)c2=O)n1 [Cpd 256]
Dephosphorylated PDK1
  IC50: < 500 nM
Phosphorylated PDK1
  IC50: 500 to 10000 nM

## COc1ccnc(NCCC#CCCNC(=O)c2cccn(Cc3ccc(Cl)c(Cl)c3)c2=O)n1 [Cpd 255]
Dephosphorylated PDK1
  IC50: < 500 nM
Phosphorylated PDK1
  IC50: < 500 nM

## COc1ccnc(NCCCCCNC(=O)c2cc(Cl)cn(Cc3ccc(Cl)cc3)c2=O)n1 [Cpd 252]
Dephosphorylated PDK1
  IC50: < 500 nM
Phosphorylated PDK1
  IC50: 500 to 10000 nM

## O=C(NCCCCCNc1nc2ccccc2o1)c1cccn(Cc2cccc(Cl)c2)c1=O [Cpd 100]
Dephosphorylated PDK1
  IC50: 500 to 10000 nM
Phosphorylated PDK1
  IC50: > 10000 nM

## O=C(NCCOc1cc(F)c2[nH]c(=O)[nH]c2c1)c1cccn(Cc2ccc(F)c(F)c2)c1=O [Cpd 158]
Dephosphorylated PDK1
  IC50: < 500 nM
Phosphorylated PDK1
  IC50: 500 to 10000 nM

## O=C(NCCCCc1c[nH]c2ncccc12)c1cccn(Cc2cc(F)c(F)c(F)c2)c1=O [Cpd 271]
Dephosphorylated PDK1
  IC50: < 500 nM
Phosphorylated PDK1
  IC50: < 500 nM

## O=C(NS(=O)(=O)c1ccc(-c2c[nH]c3ncccc23)s1)c1cccn(Cc2ccc(F)c(F)c2)c1=O [Cpd 231]
Dephosphorylated PDK1
  IC50: 500 to 10000 nM
Phosphorylated PDK1
  IC50: 500 to 10000 nM

## Nc1cnc(Nc2cccc(NC(=O)N3CCCC3)c2)nc1NCCCCCCNC(=O)c1cccn(Cc2cccc(Cl)c2)c1=O [Cpd 249]
Dephosphorylated PDK1
  IC50: < 500 nM
Phosphorylated PDK1
  IC50: > 10000 nM

## COc1ccnc(NCCCCCNC(=O)c2cccn(Cc3cccc(Cl)c3)c2=O)n1 [Cpd 101]
Dephosphorylated PDK1
  IC50: 500 to 10000 nM
Phosphorylated PDK1
  IC50: 500 to 10000 nM

## O=C(NCc1ncc(-c2c[nH]c3ncccc23)o1)c1cccn(Cc2ccc(F)c(F)c2)c1=O [Cpd 120]
Dephosphorylated PDK1
  IC50: < 500 nM
Phosphorylated PDK1
  IC50: < 500 nM
